Laboratory results taken from patent US20070027150A1 (priority 2005, published 2007).

Target: His-tagged N-terminal ATP binding domain (amino acid residues 9-236) of HSP90α (Homo sapiens, UniProt P07900)
Assay: HSP90 inhibitor binding potency: TRF competition binding assay
Conditions: Table I; read-out: Hsp90 IC50 Range
In short: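 Competition against biotinylated radicicol for binding to the His-tagged 9-236 ATP domain of HSP90α: 2 h, room temperature, HEPES/MgCl2/KCl/BSA buffer. Streptavidin capture, then europium-labeled anti-His antibody and enhancement solution; europium counts give IC50.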

Q: `Cc1ccccc1Oc1ccccc1C1CC(=O)c2c(C)nc(N)nc2C1` (stereo not shown) [Compound 134, 2-amino-4-methyl-7-[2-(2-methylphenoxy)phenyl]-7,8-dihydroquinazolin-5(6H)-one] was tested. Which IC50 did it give?
A: < 1 µM

Q: How did the IC50 turn out when `Cc1cnc(Oc2ccccc2C2CC(=O)c3c(C)nc(N)nc3C2)s1` (stereo not shown) [Compound 21, 2-amino-4-methyl-7-[2-(5-methyl-thiazol-2-yloxy)-phenyl]-7,8-dihydro-6H-quinazolin-5-one] was run?
A: < 1 µM

Q: With `Cc1nc(N)nc2c1C(=O)CC(c1ccccc1-c1ccccc1Cl)C2` (stereo not shown) [Compound 79, 2-amino-7-(2′-chloro-1,1′-biphenyl-2-yl)-4-methyl-7,8-dihydroquinazolin-5(6H)-one] as the compound, how does the IC50 read?
A: < 1 µM

Q: How did the IC50 turn out when `Cc1ccc(-c2ccccc2C2CC(=O)c3c(C)nc(N)nc3C2)c(C)n1` (stereo not shown) [Compound 66, 2-amino-7-[2-(2,6-dimethylpyridin-3-yl)phenyl]-4-methyl-7,8-dihydroquinazolin-5(6H)-one] was run?
A: 1 to 10 µM

Q: `Cc1nc(N)nc2c1C(=O)CC(c1ccccc1OC1CCCC1)C2` (stereo not shown) [Compound 150, 2-amino-7-(2-cyclopentyloxy-phenyl)-4-methyl-7,8-dihydro-6H-quinazolin-5-one] was tested. Which IC50 did it give?
A: < 1 µM

Q: How did the IC50 turn out when `Cc1ccccc1-c1ccccc1C1CC(=O)c2c(C)nc(N)nc2C1` (stereo not shown) [Compound 49, 2-amino-4-methyl-7-(2′-methyl-1,1′-biphenyl-2-yl)-7,8-dihydroquinazolin-5(6H)-one] was run?
A: < 1 µM

Q: For `Cc1nc(N)nc2c1C(=O)CC(c1ccccc1-c1cnccc1Cl)C2` (stereo not shown) [Compound 81, 2-amino-7-[2-(4-chloropyridin-3-yl)phenyl]-4-methyl-7,8-dihydroquinazolin-5(6H)-one], which IC50 is on record?
A: < 1 µM

Q: `Cc1nc(N)nc2c1C(=O)CC(c1cccnc1)C2` (stereo not shown) [Compound 160, 2-amino-4-methyl-7-pyridin-3-yl-7,8-dihydroquinazolin-5(6H)-one] was tested. Which IC50 did it give?
A: > 10 µM

Q: With `COc1ncccc1-c1ccccc1C1CC(=O)c2c(C)nc(N)nc2C1` (stereo not shown) [Compound 70, 2-amino-7-[2-(2-methoxypyridin-3-yl)phenyl]-4-methyl-7,8-dihydroquinazolin-5(6H)-one] as the compound, how does the IC50 read?
A: < 1 µM

Q: Which IC50 does the source give for `Cc1nc(N)nc2c1C(=O)CC(c1ccccc1-c1cccc(C(F)(F)F)c1)C2` (stereo not shown) [Compound 110, 2-amino-4-methyl-7-[3′-(trifluoromethyl)-1,1′-biphenyl-2-yl]-7,8-dihydroquinazolin-5(6H)-one] here?
A: 1 to 10 µM

Q: For `Cc1cccc(-c2ccccc2C2CC(=O)c3c(C)nc(N)nc3C2)c1F` (stereo not shown) [Compound 126, 2-amino-7-(2′-fluoro-3′-methyl-1,1′-biphenyl-2-yl)-4-methyl-7,8-dihydroquinazolin-5(6H)-one], which IC50 is on record?
A: < 1 µM

Q: How did the IC50 turn out when `Cc1nc(N)nc2c1C(=O)CC(c1ccccc1-c1cccnc1)C2` (stereo not shown) [Compound 26, 2-amino-4-methyl-7-(2-pyridin-3-ylphenyl)-7,8-dihydroquinazolin-5(6H)-one] was run?
A: < 1 µM

Q: How did the IC50 turn out when `CCOc1cccc(-c2ccccc2C2CC(=O)c3c(C)nc(N)nc3C2)n1` (stereo not shown) [Compound 94, 2-amino-7-[2-(6-ethoxy-pyridin-2-yl)-phenyl]-4-methyl-7,8-dihydro-6H-quinazolin-5-one] was run?
A: 1 to 10 µM

Q: How did the IC50 turn out when `Cc1nc(N)nc2c1C(=O)CC(c1cccc(-c3ccccc3F)c1)C2` (stereo not shown) [Compound 58] was run?
A: > 10 µM

Q: With `Cc1nc(N)nc2c1C(=O)CC(c1cccnc1-c1ccccn1)C2` (stereo not shown) [Compound 33, 2-amino-7-(2,2′-bipyridin-3-yl)-4-methyl-7,8-dihydroquinazolin-5(6H)-one] as the compound, how does the IC50 read?
A: 1 to 10 µM

Q: How did the IC50 turn out when `Cc1nc(N)nc2c1C(=O)CC(c1c(O)cccc1-c1cccnc1F)C2` (stereo not shown) [Compound 170, 2-amino-7-[2-(2-fluoro-pyridin-3-yl)-6-hydroxy-phenyl]-4-methyl-7,8-dihydro-6H-quinazolin-5-one] was run?
A: < 1 µM

Q: For `Cc1nc(N)nc2c1C(=O)CC(c1ccccc1-c1ccccc1CO)C2` (stereo not shown) [Compound 68, 2-amino-7-[2′-(hydroxymethyl)-1,1′-biphenyl-2-yl]-4-methyl-7,8-dihydroquinazolin-5(6H)-one], which IC50 is on record?
A: < 1 µM

Q: `COc1cccc(-c2ccccc2CO)c1C1CC(=O)c2c(C)nc(N)nc2C1` (stereo not shown) [Compound 106, 2-amino-7-[2′-(hydroxymethyl)-3-methoxy-1,1′-biphenyl-2-yl]-4-methyl-7,8-dihydroquinazolin-5(6H)-one] was tested. Which IC50 did it give?
A: < 1 µM

Q: Which IC50 does the source give for `Cc1nc(N)nc2c1C(=O)CC(c1cccnc1-c1ccccc1F)C2` (stereo not shown) [Compound 57, 2-amino-7-[2-(2-fluorophenyl)pyridin-3-yl]-4-methyl-7,8-dihydroquinazolin-5(6H)-one] here?
A: < 1 µM

Q: `Cc1nc(N)nc2c1C(=O)CC(c1ccccc1-c1ccncc1)C2` (stereo not shown) [Compound 27, 2-amino-4-methyl-7-(2-pyridin-4-ylphenyl)-7,8-dihydroquinazolin-5(6H)-one] was tested. Which IC50 did it give?
A: 1 to 10 µM

Q: For `COc1ccc(C2CC(=O)c3c(C)nc(N)nc3C2)cc1` (stereo not shown) [Compound 2, 2-amino-7-(4-methoxyphenyl)-4-methyl-7,8-dihydroquinazolin-5(6H)-one], which IC50 is on record?
A: 1 to 10 µM

Q: With `Cc1nc(N)nc2c1C(=O)CC(c1ccc(F)cc1-c1ccccc1F)C2` (stereo not shown) [Compound 86, 2-amino-7-(5,2′-difluoro-biphenyl-2-yl)-4-methyl-7,8-dihydro-6H-quinazolin-5-one] as the compound, how does the IC50 read?
A: < 1 µM

Q: With `Cc1nc(N)nc2c1C(=O)CC(c1ccccc1-c1ccccc1C(N)=O)C2` (stereo not shown) [Compound 90, 2′-(2-amino-4-methyl-5-oxo-5,6,7,8-tetrahydroquinazolin-7-yl)-1,1′-biphenyl-2-carboxamide] as the compound, how does the IC50 read?
A: < 1 µM

Q: With `Cc1ccc(-c2ccccc2C2CC(=O)c3c(C)nc(N)nc3C2)nc1` (stereo not shown) [Compound 117, 2-amino-4-methyl-7-[2-(5-methylpyridin-2-yl)phenyl]-7,8-dihydroquinazolin-5(6H)-one] as the compound, how does the IC50 read?
A: < 1 µM

Q: With `Cc1nc(N)nc2c1C(=O)CC(c1ccccc1-c1ccccc1)C2` (stereo not shown) [Compound 41, 2-amino-7-(1,1′-biphenyl-2-yl)-4-methyl-7,8-dihydroquinazolin-5(6H)-one] as the compound, how does the IC50 read?
A: < 1 µM

Same assay, conditions: Table II; read-out: Hsp90 IC50 Range

Q: With `COc1cccc(-n2cc(C(F)(F)F)nc2C2CC(=O)c3c(C)nc(N)nc3C2)n1` (stereo not shown) [Compound 205, 2-amino-7-[1-(6-methoxy-pyridin-2-yl)-4-trifluoromethyl-1H-imidazol-2-yl]-4-methyl-7,8-dihydro-6H-quinazolin-5-one] as the compound, how does the IC50 read?
A: < 1 µM

Q: How did the IC50 turn out when `Cc1nc(N)nc2c1C(=O)CC(c1ccc(F)cc1-c1nccnc1NCCO)C2` (stereo not shown) [Compound 280, 2-amino-7-{4-fluoro-2-[3-(2-hydroxy-ethylamino)-pyrazin-2-yl]-phenyl}-4-methyl-7,8-dihydro-6H-quinazolin-5-one] was run?
A: 1 to 10 µM

Q: How did the IC50 turn out when `COc1ccc(-c2cncc(OC)n2)c(C2CC(=O)c3c(C)nc(N)nc3C2)c1` (stereo not shown) [Compound 254, 2-amino-7-[5-methoxy-2-(6-methoxy-pyrazin-2-yl)-phenyl]-4-methyl-7,8-dihydro-6H-quinazolin-5-one] was run?
A: < 1 µM

Q: `CCc1nc(N)nc2c1C(=O)CC(c1ccc(F)cc1-c1cnc(OC)c(OC)n1)C2` (stereo not shown) [Compound 324, 2-amino-7-[2-(5,6-dimethoxy-pyrazin-2-yl)-4-fluoro-phenyl]-4-ethyl-7,8-dihydro-6H-quinazolin-5-one] was tested. Which IC50 did it give?
A: < 1 µM

Q: How did the IC50 turn out when `COc1nc(-c2cc(F)ccc2[C@H]2CC(=O)c3c(C)nc(N)nc3C2)ncc1Cl` [Compound 299, (R)-2-amino-7-[2-(5-chloro-4-methoxy-pyrimidin-2-yl)-4-fluoro-phenyl]-4-methyl-7,8-dihydro-6H-quinazolin-5-one] was run?
A: < 1 µM

Q: How did the IC50 turn out when `COc1ccc(-c2cccnc2OC)c(C2CC(=O)c3c(C)nc(N)nc3C2)c1` (stereo not shown) [Compound 253, 2-amino-7-[5-methoxy-2-(2-methoxy-pyridin-3-yl)-phenyl]-4-methyl-7,8-dihydro-6H-quinazolin-5-one] was run?
A: < 1 µM

Q: How did the IC50 turn out when `COc1cnc(-c2cc(F)ccc2C2CC(=O)c3c(C)nc(N)nc3C2)nc1OC` (stereo not shown) [Compound 276, 2-amino-7-[2-(4,5-dimethoxy-pyrimidin-2-yl)-4-fluoro-phenyl]-4-methyl-7,8-dihydro-6H-quinazolin-5-one] was run?
A: < 1 µM

Q: For `CCC(CC)Oc1cc(F)ccc1C1CC(=O)c2c(C)nc(N)nc2C1` (stereo not shown) [Compound 267, 2-amino-7-[2-(1-ethyl-propoxy)-4-fluoro-phenyl]-4-methyl-7,8-dihydro-6H-quinazolin-5-one], which IC50 is on record?
A: < 1 µM

Q: How did the IC50 turn out when `COc1nc(-c2cc(F)ccc2[C@@H]2CC(=O)c3c(C)nc(N)nc3C2)ncc1F` [Compound 230, (S)-2-amino-7-[4-fluoro-2-(5-fluoro-4-methoxy-pyrimidin-2-yl)-phenyl]-4-methyl-7,8-dihydro-6H-quinazolin-5-one] was run?
A: < 1 µM

Q: Which IC50 does the source give for `Cc1nc(N)nc2c1C(=O)CC(c1ccc(F)cc1-c1cnc(N)nc1)C2` (stereo not shown) [Compound 269, 2-amino-7-[2-(2-amino-pyrimidin-5-yl)-4-fluoro-phenyl]-4-methyl-7,8-dihydro-6H-quinazolin-5-one] here?
A: 1 to 10 µM

Q: For `COc1nc(-c2cc(F)ccc2[C@H]2CC(=O)c3c(C)nc(N)nc3C2)ncc1C` [Compound 274, (R)-2-amino-7-[4-fluoro-2-(4-methoxy-5-methyl-pyrimidin-2-yl)-phenyl]-4-methyl-7,8-dihydro-6H-quinazolin-5-one], which IC50 is on record?
A: < 1 µM

Q: How did the IC50 turn out when `Cc1nc(N)nc2c1C(=O)CC(c1ccc(F)cc1OCC1CC1)C2` (stereo not shown) [Compound 179, 2-amino-7-(2-cyclopropylmethoxy-4-fluoro-phenyl)-4-methyl-7,8-dihydro-6H-quinazolin-5-one] was run?
A: < 1 µM

Q: With `COc1nc(-n2ccnc2C2CC(=O)c3c(C)nc(N)nc3C2)ncc1C` (stereo not shown) [Compound 206, 2-amino-7-[1-(4-methoxy-5-methyl-pyrimidin-2-yl)-1H-imidazol-2-yl]-4-methyl-7,8-dihydro-6H-quinazolin-5-one] as the compound, how does the IC50 read?
A: < 1 µM

Q: How did the IC50 turn out when `COc1ncccc1-c1ccc(F)cc1C1CC(=O)c2c(C)nc(N)nc2C1` (stereo not shown) [Compound 285, 2-amino-7-[5-fluoro-2-(2-methoxy-pyridin-3-yl)-phenyl]-4-methyl-7,8-dihydro-6H-quinazolin-5-one] was run?
A: < 1 µM

Q: With `Cc1nc(N)nc2c1C(=O)CC(c1c(F)cccc1-c1cncnc1)C2` (stereo not shown) [Compound 218, 2-amino-7-(2-fluoro-6-pyrimidin-5-yl-phenyl)-4-methyl-7,8-dihydro-6H-quinazolin-5-one] as the compound, how does the IC50 read?
A: < 1 µM
